Data from US20240116985A1, “STAPLED PEPTIDES AND METHODS THEREOF” (priority 2020, published 2024).
Read-outs that look alike come from different tables or passages of the source.

Key:
CHI Log D procedure = assay type: physicochemical; settings: for chromatographic logD: pH 7.4, CHI Log D; for CHI Log D: pH 7.4
[1] = molecular target: T1, full-length beta-Catenin (Uniprot ID P35222) (Homo sapiens, UniProt P35222); experiment: Fluorescence polarization IC50 (beta-catenin / 5FAM-TCF4 10-53 competition); assay type: binding
T1 construct: 10 nM full-length beta-Catenin (Uniprot ID P35222)
T1 sequence (P35222 1-781): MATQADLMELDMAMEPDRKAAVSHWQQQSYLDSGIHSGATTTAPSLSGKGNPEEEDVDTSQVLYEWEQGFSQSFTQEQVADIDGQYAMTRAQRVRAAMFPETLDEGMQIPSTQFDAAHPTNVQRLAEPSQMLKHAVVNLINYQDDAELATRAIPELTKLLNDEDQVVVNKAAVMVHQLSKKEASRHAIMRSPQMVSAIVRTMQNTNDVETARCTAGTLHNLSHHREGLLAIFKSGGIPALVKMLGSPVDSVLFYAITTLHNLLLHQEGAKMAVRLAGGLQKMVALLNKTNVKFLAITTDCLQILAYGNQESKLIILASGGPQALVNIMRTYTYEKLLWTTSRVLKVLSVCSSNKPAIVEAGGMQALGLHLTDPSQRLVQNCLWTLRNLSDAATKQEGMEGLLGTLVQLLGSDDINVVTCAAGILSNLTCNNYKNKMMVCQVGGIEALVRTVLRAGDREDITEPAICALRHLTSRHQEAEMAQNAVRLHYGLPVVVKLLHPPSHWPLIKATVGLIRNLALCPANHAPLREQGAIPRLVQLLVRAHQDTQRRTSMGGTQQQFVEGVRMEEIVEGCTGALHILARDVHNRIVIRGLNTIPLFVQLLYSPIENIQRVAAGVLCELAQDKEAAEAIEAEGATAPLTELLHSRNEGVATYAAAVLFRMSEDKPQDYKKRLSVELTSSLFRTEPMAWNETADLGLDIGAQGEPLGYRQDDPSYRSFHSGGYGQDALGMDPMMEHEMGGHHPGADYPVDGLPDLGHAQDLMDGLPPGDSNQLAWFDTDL

[2] = molecular target: T2, beta-catenin/TCF4 engagement (Homo sapiens, UniProt P35222); experiment: Nano-BRET target engagement assay (B-cat-Halo & TCF4-Luc in HEK293 cells); assay type: cell-based
T2 construct: expressed in transfected cells; host or cells: HEK293
T2 sequence (P35222 1-781): T1 sequence (P35222 1-781)

[3] = absolute IC50, read-out: NanoBRET Abs IC50
[4] = fluorescence polarization, beta-catenin, read-out: FP EC50

Row | Structure (SMILES) | chromatographic logD (CHI Log D procedure) | IC50 ([1]; read-out: beta-Catenin FP IC50) [µM] | IC50 [2, 3] [µM] | IC50 ([2]; read-out: NanoBRET IC50) [µM] | IC50 ([2]; read-out: NanoBRET Abs IC50) [µM] | CHI Log D (CHI Log D procedure) | IC50 [1, 4] [µM]
1 | CC(=O)N1CCC[C@]12CC=CCCCC1(CCCC=CCCCOC(=O)N3CC[C@@](C(=O)N[C@@H](Cc4ccsc4)C(=O)N[C@@H](Cc4csc5ccccc45)C(N)=O)(C3)NC(=O)[C@H](CC(N)=O)NC(=O)[C@H](Cc3ccccc3)NC(=O)[C@H](C)NC(=O)[C@H](C)NC(=O)[C@H]([C@@H](C)O)NC(=O)[C@H](CC(=O)O)NC1=O)NC(=O)[C@H](CC(C)(C)C)NC(=O)[C@H](CC(=O)O)NC2=O (stereo partly drawn) [I-859, Ac-PL3-Asp-Npg-B5-Asp-Thr-Ala-Ala-Phe-Asn-PyrS2-3Thi-BztA-NH2] | – | 0.036 | – | – | > 20 | 2.711 | 0.036
2 | CC(=O)N1CCC[C@]12CC=CCCCC1(CCCC=CCCCOC(=O)N3CC[C@@](C(=O)N[C@@H](Cc4ccccc4Cl)C(=O)N[C@@H](Cc4csc5ccccc45)C(=O)N[C@@H](CCC(N)=O)C(N)=O)(C3)NC(=O)[C@H](Cc3ccccc3)NC(=O)[C@H](Cc3ccccc3)NC(=O)[C@H](C)NC(=O)[C@H](C)NC(=O)[C@H](CN(CC(=O)O)CC(F)(F)F)NC(=O)[C@H](CC(=O)O)NC1=O)NC(=O)[C@H](CC(C)(C)C)NC(=O)[C@H](CC(=O)O)NC2=O (stereo partly drawn) [I-923, Ac-PL3-Asp-Npg-B5-Asp-TfeGA-Ala-Ala-Phe-Phe-PyrS2-2C1F-BztA-Gln-NH2] | 2.46 | 0.027 | 6 | – | – | – | –
3 | CC(=O)N1CCC[C@]12CC=CCCCC1(CCCC=CCCCOC(=O)N3CC[C@@](C(=O)N[C@@H](Cc4cccc(Cl)c4)C(=O)N[C@@H](Cc4csc5ccccc45)C(=O)N[C@@H](CCC(N)=O)C(N)=O)(C3)NC(=O)[C@H](CC(N)=O)NC(=O)[C@H](Cc3ccccc3)NC(=O)[C@H](C)NC(=O)[C@H](C)NC(=O)[C@H](CN(CC(=O)O)CC(F)(F)F)NC(=O)[C@H](CC(=O)O)NC1=O)NC(=O)[C@H](CC(C)(C)C)NC(=O)[C@H](CC(=O)O)NC2=O (stereo partly drawn) [I-925, Ac-PL3-Asp-Npg-B5-Asp-TfeGA-Ala-Ala-Phe-Asn-PyrS2-3C1F-BztA-Gln-NH2] | – | 0.021 | – | – | 20 | 2.344 | 0.021
4 | CC(=O)N1CCC[C@]12CC=CCCCC1(CCCC=CCCCOC(=O)N3CC[C@@](C(=O)N[C@@H](Cc4cccc(Cl)c4)C(=O)N[C@@H](Cc4csc5ccccc45)C(=O)N[C@@H](CCC(N)=O)C(N)=O)(C3)NC(=O)[C@H](CC(N)=O)NC(=O)[C@H](Cc3ccccc3)NC(=O)[C@H](C)NC(=O)[C@H](C)NC(=O)[C@H](CN(CC(=O)O)CC(F)(F)F)NC(=O)[C@H](CC(=O)O)NC1=O)NC(=O)[C@H](CC(C)(C)C)NC(=O)[C@H](CC(=O)O)NC2=O (stereo partly drawn) [I-926, Ac-PL3-Asp-Npg-B5-Asp-TfeGA-Ala-Ala-Phe-Asn-PyrS2-3C1F-BztA-Gln-NH2] | – | 0.043 | – | 17.1 | – | 2.406 | 0.043
5 | CC(=O)N1CCC[C@]12CC=CCCCC1(CCCC=CCCCOC(=O)N3CC[C@@](C(=O)N[C@@H](Cc4ccccc4C(F)(F)F)C(=O)N[C@@H](Cc4csc5ccccc45)C(=O)N[C@@H](CCC(N)=O)C(N)=O)(C3)NC(=O)[C@H](CC(N)=O)NC(=O)[C@H](Cc3ccccc3)NC(=O)[C@H](C)NC(=O)[C@H](C)NC(=O)[C@H](CN(CC(=O)O)CC(F)(F)F)NC(=O)[C@H](CC(=O)O)NC1=O)NC(=O)[C@H](CC(C)(C)C)NC(=O)[C@H](CC(=O)O)NC2=O (stereo partly drawn) [I-928, Ac-PL3-Asp-Npg-B5-Asp-TfeGA-Ala-Ala-Phe-Asn-PyrS2-2F3MeF-BztA-Gln-NH2] | – | 0.021 | – | 5 | 6.1 | 2.38 | 0.021

Continued, values first:

Row | chromatographic logD (CHI Log D procedure) | IC50 ([1]; read-out: beta-Catenin FP IC50) [µM] | IC50 [2, 3] [µM] | IC50 ([2]; read-out: NanoBRET IC50) [µM] | IC50 ([2]; read-out: NanoBRET Abs IC50) [µM] | CHI Log D (CHI Log D procedure) | IC50 [1, 4] [µM] | Structure (SMILES)
6 | 2.15 | 0.016 | 7.6 | – | – | – | – | CC(=O)N1CCC[C@]12CC=CCCCC1(CCCC=CCCCOC(=O)N3CC[C@@](C(=O)N[C@@H](Cc4ccsc4)C(=O)N[C@@H](Cc4csc5ccccc45)C(=O)N[C@@H](CCC(N)=O)C(N)=O)(C3)NC(=O)[C@H](CC(C)C)NC(=O)[C@H](Cc3ccccc3)NC(=O)[C@H](C)NC(=O)[C@H](C)NC(=O)[C@H](Cc3ccc(C(=O)O)cc3)NC(=O)[C@H](CC(=O)O)NC1=O)NC(=O)[C@H](CC(C)(C)C)NC(=O)[C@H](CC(=O)O)NC2=O (stereo partly drawn) [I-851, Ac-PL3-Asp-Npg-B5-Asp-4COOHF-Ala-Ala-Phe-Leu-PyrS2-3Thi-BztA-Gln-NH2]
7 | 2.48 | 0.008 | 3.6 | 4.6 | – | – | – | CC(=O)N1CCC[C@]12CC=CCCCC1(CCCC=CCCCOC(=O)N3CC[C@@](C(=O)N[C@@H](Cc4ccsc4)C(=O)N[C@@H](Cc4csc5ccccc45)C(=O)N[C@@H](CCC(N)=O)C(N)=O)(C3)NC(=O)[C@H](CC(C)C)NC(=O)[C@H](Cc3ccccc3)NC(=O)[C@H](C)NC(=O)[C@H](C)NC(=O)[C@H](Cc3ccccc3C(=O)O)NC(=O)[C@H](CC(=O)O)NC1=O)NC(=O)[C@H](CC(C)(C)C)NC(=O)[C@H](CC(=O)O)NC2=O (stereo partly drawn) [I-854, Ac-PL3-Asp-Npg-B5-Asp-2COOHF-Ala-Ala-Phe-Leu-PyrS2-3Thi-BztA-Gln-NH2]
8 | 2.45 | 0.017 | – | – | 6.8 | – | – | CC(=O)N1CCC[C@]12CC=CCCCC1(CCCC=CCCCOC(=O)N3CC[C@@](C(=O)N[C@@H](Cc4ccsc4)C(=O)N[C@@H](Cc4csc5ccccc45)C(=O)N[C@@H](CCC(N)=O)C(N)=O)(C3)NC(=O)[C@H](CC(C)C)NC(=O)[C@H](Cc3ccccc3)NC(=O)[C@H](C)NC(=O)[C@H](C)NC(=O)[C@H](CC(N)=O)NC(=O)[C@H](CC(=O)O)NC1=O)NC(=O)[C@H](CC(C)(C)C)NC(=O)[C@H](CC(=O)O)NC2=O (stereo partly drawn) [I-856, Ac-PL3-Asp-Npg-B5-Asp-Asn-Ala-Ala-Phe-Leu-PyrS2-3Thi-BztA-Gln-NH2]
9 | – | 0.01 | – | – | 23.8 | −0.008 | 0.01 | CC(=O)N1CCC[C@]12CC=CCCCC1(CCCC=CCCCOC(=O)N3CC[C@@](C(=O)N[C@@H](Cc4ccsc4)C(=O)N[C@@H](Cc4csc5ccccc45)C(=O)N[C@@H](CCC(N)=O)C(=O)NCCCCCCN)(C3)NC(=O)[C@H](CC(N)=O)NC(=O)[C@H](Cc3ccccc3)NC(=O)[C@H](C)NC(=O)[C@H](C)NC(=O)[C@H](CC(=O)O)NC(=O)[C@H](CC(=O)O)NC1=O)NC(=O)[C@H](CC(C)(C)C)NC(=O)[C@H](CC(=O)O)NC2=O (stereo partly drawn) [I-881, Ac-PL3-Asp-Npg-B5-Asp-Asp-Ala-Ala-Phe-Asn-PyrS2-3Thi-BztA-Gln-6AmHex]
10 | – | 0.022 | – | 22.5 | 41.4 | 2.028 | 0.022 | CC(=O)N1CCC[C@]12CC=CCCCC1(CCCC=CCCCOC(=O)N3CC[C@@](C(=O)N[C@@H](Cc4ccsc4)C(=O)N[C@@H](Cc4csc5ccccc45)C(=O)N[C@@H](CCC(N)=O)C(=O)NCCCCCCN)(C3)NC(=O)[C@H](CC(N)=O)NC(=O)[C@H](Cc3ccccc3)NC(=O)[C@H](C)NC(=O)[C@H](C)NC(=O)[C@H](CC(=O)O)NC(=O)[C@H](CC(=O)O)NC1=O)NC(=O)[C@H](CC(C)(C)C)NC(=O)[C@H](CC(=O)O)NC2=O (stereo partly drawn) [I-882, Ac-PL3-Asp-Npg-B5-Asp-Asp-Ala-Ala-Phe-Asn-PyrS2-3Thi-BztA-Gln-6AmHex]
11 | 1.45 | 0.015 | – | – | > 20 | – | – | COCCOCCOCCOCCC(=O)NCCCC[C@@H]1NC(=O)[C@H](C)NC(=O)[C@H](CC(=O)O)NC(=O)[C@H](CC(=O)O)NC(=O)C2(CCCC=CCCCOC(=O)N3CC[C@@](C(=O)N[C@@H](Cc4ccsc4)C(=O)N[C@@H](Cc4csc5ccccc45)C(=O)N[C@@H](CCC(N)=O)C(N)=O)(C3)NC(=O)[C@H](CC(N)=O)NC(=O)[C@H](Cc3ccccc3)NC1=O)CCCC=CC[C@]1(CCCN1C(C)=O)C(=O)N[C@@H](CC(=O)O)C(=O)N[C@@H](CC(C)(C)C)C(=O)N2 (stereo partly drawn) [I-894, Ac-PL3-Asp-Npg-B5-Asp-Asp-Ala-[mPEG4]Lys-Phe-Asn-PyrS2-3Thi-BztA-Gln-NH2]
12 | 1.82 | 0.012 | – | – | 22.9 | – | – | COCCOCCC(=O)NCCCC[C@H](NC(=O)[C@H](CCC(N)=O)NC(=O)[C@H](Cc1csc2ccccc12)NC(=O)[C@H](Cc1ccsc1)NC(=O)[C@]12CCN(C1)C(=O)OCCCC=CCCCC1(CCCC=CC[C@]3(CCCN3C(C)=O)C(=O)N[C@@H](CC(=O)O)C(=O)N[C@@H](CC(C)(C)C)C(=O)N1)C(=O)N[C@@H](CC(=O)O)C(=O)N[C@@H](CC(=O)O)C(=O)N[C@@H](C)C(=O)N[C@@H](C)C(=O)N[C@@H](Cc1ccccc1)C(=O)N[C@@H](CC(N)=O)C(=O)N2)C(N)=O (stereo partly drawn) [I-911, Ac-PL3-Asp-Npg-B5-Asp-Asp-Ala-Ala-Phe-Asn-PyrS2-3Thi-BztA-Gln-[mPEG2]Lys-NH2]
